Results: patent US6737383B1, “Herbicidal oxadiazolidines” (priority 1999, dated 2004)

How the values were obtained:
Alexandergrass = assay: Test D Alexandergrass; type: in vivo, Brachiaria plantaginea; conditions: Preemergence, 0 to 100 scale
Method in brief: (§1)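 Greenhouse pots, sandy loam, single species per pot. Preemergence tests: soil-surface application ≤1 day after planting. Compound formulated in non-phytotoxic solvent with surfactant. Visual rating 14–21 DAT, scale 0–100.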

bermuda-grass = assay: Test D bermudagrass; type: in vivo, Cynodon dactylon; conditions: Preemergence, 0 to 100 scale
Method in brief: as §1

common ragweed = assay: Test D common ragweed; type: in vivo, Ambrosia elatior; conditions: Preemergence, 0 to 100 scale
Method in brief: as §1

common groundsel = assay: Test D common groundsel; type: in vivo, Senecio vulgaris; conditions: Preemergence, 0 to 100 scale
Method in brief: as §1

dallisgrass = assay: Test D dallisgrass; type: in vivo, Paspalum dilatatum; conditions: Preemergence, 0 to 100 scale
Method in brief: as §1

goosegrass = assay: Test D goosegrass; type: in vivo, Eleusine indica; conditions: Preemergence, 0 to 100 scale
Method in brief: as §1

guineagrass = assay: Test D guineagrass; type: in vivo, Panicum maximum; conditions: Preemergence, 0 to 100 scale
Method in brief: as §1

itchgrass = assay: Test D itchgrass; type: in vivo, Rottboellia exaltata; conditions: Preemergence, 0 to 100 scale
Method in brief: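 Scoring used a 0–100 visual injury scale, with 0 meaning no effect and 100 complete control, assessed 14–21 days after application alongside untreated pots. Preemergence treatments went onto sandy loam surfaces of separately potted seeds within a day of sowing.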

Johnson grass = assay: Test D Johnson grass; type: in vivo, Sorghum halepense; conditions: Preemergence, 0 to 100 scale
Method in brief: as §1

pitted morningglory = assay: Test D pitted morningglory; type: in vivo, Ipomoea lacunosa; conditions: Preemergence, 0 to 100 scale
Method in brief: as §1

purple nutsedge = assay: Test D purple nutsedge; type: in vivo, Cyperus rotundus; conditions: Preemergence, 0 to 100 scale
Method in brief: as §1

surinam grass = assay: Test D surinam grass; type: in vivo, Brachiaria decumbens; conditions: Preemergence, 0 to 100 scale
Method in brief: as §1

tall mallow = assay: Test D tall mallow; type: in vivo, Malva sylvestris; conditions: Preemergence, 0 to 100 scale
Method in brief: as §1

Green foxtail [1] = assay: Test D green foxtail; type: in vivo; conditions: Preemergence, 0 to 100 scale
Excerpt: (§2) Seeds, tubers, or plant parts of Alexandergrass (Brachiaria plantaginea), bermuda-grass (Cynodon dactylon), common pursiane (Portulaca oleracea), common ragweed (Ambrosia elatior), common groundsel (Senecio vulgaris), dallisgrass (Paspalum dilatatum), goosegrass (Eleusine indica), guineagrass (Panicum maximum), itchgrass (Rottboellia exaltata), Johnson grass (Sorghum halepense), large crabgrass (Digitaria sanguinalis), pitted morningglory (Ipomoea lacunosa), purple nutsedge (Cyperus rotundus), sandbur (Cenchrus echinatus), sourgrass (Trichachne insularis), Spanishneedles (Bidens bipinnata), surinam grass (Brachiaria decumbens) and tall mallow (Malva sylvestris) were planted into greenhouse pots of flats containing greenhouse planting medium. Plant species were grown in separate pots or individual compartments. Preemergence applications were made within one day of planting the seed or plant part.
(§3) Test chemicals were formulated in a non-phytotoxic solvent mixture which included a surfactant and applied preemergence to the surface of the pot containing seeds in a sandy loam soil. Untreated control pots and treated pots were placed in the greenhouse for growth and visually evaluated for injury 14 to 21 days after herbicide application. Plant response ratings, summarized in Table C, are based on a 0 to 100 scale where 0 is no injury and 100 is complete control. A dash (−) response means no test result.

Green foxtail [2] = assay: Test D green foxtail; type: in vivo
Excerpt: as §2, §3

[3] = Rate 16 g/ha, 0 no injury, 100 complete control
[4] = Rate 32 g/ha, 0 no injury, 100 complete control
[5] = Rate 64 g/ha, 0 no injury, 100 complete control
[6] = Rate 125 g/ha, 0 no injury, 100 complete control
[7] = Rate 64 g/ha, Preemergence; 0 to 100 scale, 0 no injury, 100 complete control
[8] = Rate 125 g/ha, Preemergence; 0 to 100 scale, 0 no injury, 100 complete control

## Cc1cccc(C)c1-n1c(=O)on(C(=O)N(c2ccccc2)C(C)C)c1=O [Compound 46]
Alexandergrass; [3]
  Plant response rating, Alexandergrass: 0
Alexandergrass; [4]
  Plant response rating, Alexandergrass: 0
Alexandergrass; [5]
  Plant response rating, Alexandergrass: 40
Alexandergrass; [6]
  Plant response rating, Alexandergrass: 65
Alexandergrass; Rate 250 g/ha
  Plant response rating, Alexandergrass: 75
Alexandergrass; Rate 500 g/ha
  Plant response rating, Alexandergrass: 80
bermuda-grass; [3]
  Plant response rating, Bermudagrass: 65
bermuda-grass; [4]
  Plant response rating, Bermudagrass: 85
bermuda-grass; [5]
  Plant response rating, Bermudagrass: 98
bermuda-grass; [6]
  Plant response rating, Bermudagrass: 100
bermuda-grass; Rate 250 g/ha
  Plant response rating, Bermudagrass: 100
bermuda-grass; Rate 500 g/ha
  Plant response rating, Bermudagrass: 100
Common ragweed; [3]
  Plant response rating, C. ragweed: 0
Common ragweed; [4]
  Plant response rating, C. ragweed: 0
Common ragweed; [5]
  Plant response rating, C. ragweed: 0
Common ragweed; [6]
  Plant response rating, C. ragweed: 0
Common ragweed; Rate 250 g/ha
  Plant response rating, C. ragweed: 0
Common ragweed; Rate 500 g/ha
  Plant response rating, C. ragweed: 0
Common groundsel; [3]
  Plant response rating, Com. groundsel: 0
Common groundsel; [4]
  Plant response rating, Com. groundsel: 0
Common groundsel; [5]
  Plant response rating, Com. groundsel: 0
Common groundsel; [6]
  Plant response rating, Com. groundsel: 0
Common groundsel; Rate 250 g/ha
  Plant response rating, Com. groundsel: 0
Common groundsel; Rate 500 g/ha
  Plant response rating, Com. groundsel: 0
dallisgrass; [3]
  Plant response rating, Dallisgrass: 20
dallisgrass; [4]
  Plant response rating, Dallisgrass: 40
dallisgrass; [5]
  Plant response rating, Dallisgrass: 40
dallisgrass; [6]
  Plant response rating, Dallisgrass: 100
dallisgrass; Rate 250 g/ha
  Plant response rating, Dallisgrass: 100
dallisgrass; Rate 500 g/ha
  Plant response rating, Dallisgrass: 100
goosegrass; [3]
  Plant response rating, Goosegrass: 0
goosegrass; [4]
  Plant response rating, Goosegrass: 20
goosegrass; [5]
  Plant response rating, Goosegrass: 75
goosegrass; [6]
  Plant response rating, Goosegrass: 85
goosegrass; Rate 250 g/ha
  Plant response rating, Goosegrass: 98
goosegrass; Rate 500 g/ha
  Plant response rating, Goosegrass: 100
guineagrass; [3]
  Plant response rating, Guineagrass: 0
guineagrass; [4]
  Plant response rating, Guineagrass: 0
guineagrass; [5]
  Plant response rating, Guineagrass: 30
guineagrass; [6]
  Plant response rating, Guineagrass: 30
guineagrass; Rate 250 g/ha
  Plant response rating, Guineagrass: 65
guineagrass; Rate 500 g/ha
  Plant response rating, Guineagrass: 85
itchgrass; [3]
  Plant response rating, Itchgrass: 0
itchgrass; [4]
  Plant response rating, Itchgrass: 0
itchgrass; [5]
  Plant response rating, Itchgrass: 0
itchgrass; [6]
  Plant response rating, Itchgrass: 0
itchgrass; Rate 250 g/ha
  Plant response rating, Itchgrass: 0
itchgrass; Rate 500 g/ha
  Plant response rating, Itchgrass: 10
Johnson grass; [3]
  Plant response rating, Johnsongrass: 0
Johnson grass; [4]
  Plant response rating, Johnsongrass: 0
Johnson grass; [5]
  Plant response rating, Johnsongrass: 0
Johnson grass; [6]
  Plant response rating, Johnsongrass: 40
Johnson grass; Rate 250 g/ha
  Plant response rating, Johnsongrass: 40
Johnson grass; Rate 500 g/ha
  Plant response rating, Johnsongrass: 60
Pitted morningglory; [3]
  Plant response rating, P. morninglory: 0
Pitted morningglory; [4]
  Plant response rating, P. morninglory: 0
Pitted morningglory; [5]
  Plant response rating, P. morninglory: 0
Pitted morningglory; [6]
  Plant response rating, P. morninglory: 0
Pitted morningglory; Rate 250 g/ha
  Plant response rating, P. morninglory: 0
Pitted morningglory; Rate 500 g/ha
  Plant response rating, P. morninglory: 0
Purple nutsedge; [3]
  Plant response rating, Purple nutsedge: 0
Purple nutsedge; [4]
  Plant response rating, Purple nutsedge: 0
Purple nutsedge; [5]
  Purple nutsedge plant response rating: 0
Purple nutsedge; [6]
  Purple nutsedge plant response rating: 0
Purple nutsedge; Rate 250 g/ha
  Plant response rating, Purple nutsedge: 0
Purple nutsedge; Rate 500 g/ha
  Plant response rating, Purple nutsedge: 0
Surinam grass; [3]
  Plant response rating, Surinam grass: 0
Surinam grass; [4]
  Plant response rating, Surinam grass: 0
Surinam grass; [5]
  Surinam grass plant response rating: 0
Surinam grass; [6]
  Surinam grass plant response rating: 0
Surinam grass; Rate 250 g/ha
  Plant response rating, Surinam grass: 10
Surinam grass; Rate 500 g/ha
  Plant response rating, Surinam grass: 30
Tall mallow; [3]
  Plant response rating, Tall Mallow: 0
Tall mallow; [4]
  Plant response rating, Tall Mallow: 0
Tall mallow; [5]
  Tall Mallow plant response rating: 0
Tall mallow; [6]
  Tall Mallow plant response rating: 10
Tall mallow; Rate 250 g/ha
  Plant response rating, Tall Mallow: 10
Tall mallow; Rate 500 g/ha
  Plant response rating, Tall Mallow: 10
Green foxtail [1]; Rate 250 g/ha
  Plant response rating, Green foxtail: 100
Green foxtail [1]; Rate 500 g/ha
  Plant response rating, Green foxtail: 100
Green foxtail [2]; Preemergence; Rate 16 g/ha; 0 to 100 scale, 0 no injury, 100 complete control
  Plant response rating, Green foxtail: 0
Green foxtail [2]; Preemergence; Rate 32 g/ha; 0 to 100 scale, 0 no injury, 100 complete control
  Plant response rating, Green foxtail: 0
Green foxtail [2]; Rate 16 g/ha; Preemergence; 0 to 100 scale, 0 no injury, 100 complete control
  Plant response rating, Green foxtail: 0
Green foxtail [2]; Rate 32 g/ha; Preemergence; 0 to 100 scale, 0 no injury, 100 complete control
  Plant response rating, Green foxtail: 75
Green foxtail [2]; [7]
  Green foxtail plant response rating: 30
  Plant response rating, Green foxtail: 30
Green foxtail [2]; [8]
  Green foxtail plant response rating: 40
  Plant response rating, Green foxtail: 40
Green foxtail [2]; Rate 250 g/ha; Preemergence; 0 to 100 scale
  Plant response rating, Green foxtail: 100
Green foxtail [2]; Rate 500 g/ha, Preemergence; 0 to 100 scale
  Plant response rating, Green foxtail: 100
